Measurements as given in PMC8745223, “Novel 1,3,5-Triazinyl Aminobenzenesulfonamides Incorporating Aminoalcohol, Aminochalcone and Aminostilbene Structural Motifs as Potent Anti-VRE Agents, and Carbonic Anhydrases I, II, VII, IX, and XII Inhibitors” (International Journal of Molecular Sciences, 2021).
In brackets after ≈: the same amount, converted by molar mass.

How the values were obtained:
hCA VII = molecular target: T1, hCA VII (Homo sapiens, UniProt P43166); test: stopped-flow CO2 hydration assay; format: biochemical
T1 construct: gene CA7; recombinant
Method in brief: (§1)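 Recombinant human carbonic anhydrase CO2 hydration was followed by stopped-flow for 10–100 s with 0.2 mM phenol red (557 nm), 20 mM Hepes pH 7.5, 20 mM Na2SO4 and 1.7–17 mM CO2. Enzyme and inhibitor (diluted to 0.005 nM in buffer) were preincubated 15 min at room temperature. Initial rates used at least six traces, with uncatalysed rates subtracted. Ki was fitted by non-linear least squares with Cheng–Prusoff equation, averaged over three or more determinations.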

hCA I [1] = molecular target: T2, hCA I (Homo sapiens, UniProt P00915); test: stopped-flow CO2 hydration assay; format: biochemical
T2 construct: gene CA1; recombinant
Method in brief: as §1

hCA II = molecular target: T3, hCA II (Homo sapiens, UniProt P00918); test: stopped-flow CO2 hydration assay; format: biochemical
T3 construct: gene CA2; recombinant
Method in brief: as §1

hCA IX = molecular target: T4, hCA IX (Homo sapiens, UniProt Q16790); test: stopped-flow CO2 hydration assay; format: biochemical
T4 construct: gene CA9; recombinant
Method in brief: as §1

[2] = system: T5, Enterococcus faecalis VRE 725 B; test: organism not typed; parameters: broth microdilution MIC in BHI, Alamar Blue read-out, 37 °C; conditions: 24 h
T5 construct: VRE 725B (vanA clinical isolate)
Description: The inhibition activity against enterococci was evaluated by the microtitration broth method according to the Clinical and Laboratory Standards Institute with some modifications. The compounds were dissolved in DMSO and serially diluted in Brain Hearth Infusion (BHI) to reach concentrations 256–2 µg/mL. […] The experiment was repeated at least three times. All the investigated compounds were tested on their anti-staphylococcal activity against three clinical isolates of methicillin-resistant Staphylococcus aureus (MRSA) and S. aureus ATCC 29213 as the reference and quality control strain. […] All the compounds were tested against Enterococcus faecalis ATCC 29212 as the reference strain and three isolates from American crows of vanA-carrying vancomycin-resistant E. faecalis (VRE), and the activities, expressed as minimum inhibitory concentrations (MICs), are listed in Table 3.

[3] = system: T6, E. faecalis ATCC 29212 (EF); test: microbe, parasite or virus in culture; parameters: broth microdilution MIC in BHI, Alamar Blue read-out, 37 °C; conditions: Enterococcus faecalis, ATCC29212, 24 h
T6 construct: ATCC 29212
Description: (§2) The inhibition activity against enterococci was evaluated by the microtitration broth method according to the Clinical and Laboratory Standards Institute with some modifications. The compounds were dissolved in DMSO and serially diluted in Brain Hearth Infusion (BHI) to reach concentrations 256–2 µg/mL. […] The experiment was repeated at least three times. All the investigated compounds were tested on their anti-staphylococcal activity against three clinical isolates of methicillin-resistant Staphylococcus aureus (MRSA) and S. aureus ATCC 29213 as the reference and quality control strain.

[4] = system: T7, Enterococcus faecalis VRE 342 B; test: organism not typed; parameters: broth microdilution MIC in BHI, Alamar Blue read-out, 37 °C; conditions: 24 h
T7 construct: VRE 342 B (vanA clinical isolate)
Description: as §2

[5] = system: T8, Enterococcus faecalis VRE 368; test: organism not typed; parameters: broth microdilution MIC in BHI, Alamar Blue read-out, 37 °C; conditions: 24 h
T8 construct: VRE 368 (vanA clinical isolate)
Description: as §2

hCA I [6] = molecular target: T2, hCA I; test: biochemical; parameters: stopped-flow CO2 hydration assay, phenol red indicator 557 nm, recombinant human CA, 15 min preincubation
Description: AnSX.18MV-R Applied Photophysics stopped-flow instrument (Applied Photophysics, Leatherhead, UK) has been used for assaying the CA catalyzed CO2 hydration activity. Phenol red (at a concentration of 0.2 mM) has been used as an indicator, working at the absorbance maximum of 557 nm, with 20 mM Hepes (pH 7.5) as a buffer and 20 mM Na2SO4 (for maintaining constant the ionic strength), following the CA-catalyzed CO2 hydration reaction for a period of 10–100 s. The CO2 concentrations ranged from 1.7 to 17 mM for the determination of the kinetic parameters and inhibition constants. For each inhibitor, at least six traces of the initial 5–10% of the reaction were used for determining the initial velocity. The uncatalyzed rates were determined in the same manner and were subtracted from the total observed rates. Stock solutions of the inhibitor (0.1 mM) were prepared in distilled-deionized water, and dilutions up to 0.005 nM were done thereafter with the assay buffer. Inhibitor and enzyme solutions were preincubated together for 15 min at room temperature prior to assay in order to allow for the formation of the E–I complex. The inhibition constants were obtained by non-linear least-squares methods using PRISM 3 and the ChengPrusoff equation, as reported earlier, and represent the mean from at least three different determinations. All CA isoforms were recombinant ones and were prepared as reported earlier. Errors in the range of 5–10% of the reported value (Mean from three different assays, by stopped-flow technique). The presence of aminobenzenesulfonamide structural moiety in the structure of target compounds 1–44 can cause inhibition activity in these compounds against human carbonic anhydrases. The inhibition of physiologically relevant hCA I and hCA II can lead to various undesirable side effects. […] Compounds 1–44 were evaluated as potential inhibitors of hCA I, hCA II, hCA VII, hCA IX, and hCA XII. The inhibition activities against individual hCAs were determined by methodology based on stopped-flow assay. […]

hCA XII = molecular target: T9, hCA XII (Homo sapiens, UniProt O43570); test: stopped-flow CO2 hydration assay; format: biochemical
T9 construct: gene CA12; recombinant
Method in brief: as §1

T2 sequence (P00915 2-261): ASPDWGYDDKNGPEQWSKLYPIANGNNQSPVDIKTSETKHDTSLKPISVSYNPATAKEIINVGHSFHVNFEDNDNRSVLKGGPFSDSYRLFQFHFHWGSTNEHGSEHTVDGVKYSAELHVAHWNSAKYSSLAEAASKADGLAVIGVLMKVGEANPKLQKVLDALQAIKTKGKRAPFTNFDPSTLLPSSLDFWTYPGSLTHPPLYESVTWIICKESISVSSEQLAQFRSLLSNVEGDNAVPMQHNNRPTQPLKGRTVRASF
T1 sequence (P43166 whole entry): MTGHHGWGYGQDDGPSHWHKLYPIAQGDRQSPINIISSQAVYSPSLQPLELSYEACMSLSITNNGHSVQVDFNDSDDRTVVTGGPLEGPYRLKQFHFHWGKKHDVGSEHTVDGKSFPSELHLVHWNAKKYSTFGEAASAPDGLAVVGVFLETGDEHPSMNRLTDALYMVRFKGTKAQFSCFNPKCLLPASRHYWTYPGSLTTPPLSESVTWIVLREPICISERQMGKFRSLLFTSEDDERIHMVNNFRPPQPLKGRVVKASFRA
T9 sequence (O43570 25-354): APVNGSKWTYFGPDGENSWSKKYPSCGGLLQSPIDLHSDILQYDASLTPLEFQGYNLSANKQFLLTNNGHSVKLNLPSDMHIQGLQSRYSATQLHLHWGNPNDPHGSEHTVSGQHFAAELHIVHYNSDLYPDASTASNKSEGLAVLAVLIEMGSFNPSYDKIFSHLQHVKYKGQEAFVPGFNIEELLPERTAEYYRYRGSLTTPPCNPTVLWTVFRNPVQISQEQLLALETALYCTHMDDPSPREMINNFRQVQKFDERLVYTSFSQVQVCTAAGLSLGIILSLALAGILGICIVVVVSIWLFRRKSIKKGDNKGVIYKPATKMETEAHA

| Compound | Ki (hCA VII) [nM] | Ki (hCA I [1]) [nM] | Ki (hCA II) [nM] | Ki (hCA IX) [nM] | MIC [2] [µM] | MIC [3] [µM] | MIC [4] [µM] | MIC [5] [µM] | Ki (hCA I [6]) [nM] | Ki (hCA XII) [nM] |
| --- | --- | --- | --- | --- | --- | --- | --- | --- | --- | --- |
| NS(=O)(=O)c1ccc(Nc2nc(Cl)nc(NCCCO)n2)cc1 [compound 1, 1] | 128 | 26.8 | 44.8 | 229 | – | – | – | – | – | – |
| NS(=O)(=O)c1ccc(CNc2nc(NCCCO)nc(Nc3ccc(C(=O)/C=C/c4ccccc4)cc3)n2)cc1 [compound 13, 13] | 95.7 | 1960 | 277 | 4630 | 228 (≈ 128 µg/mL) | 228 (≈ 128 µg/mL) | 228 (≈ 128 µg/mL) | 114 (≈ 63.8 µg/mL) | – | – |
| NS(=O)(=O)c1ccc(CNc2nc(NCCCO)nc(Nc3ccc(C(=O)/C=C/c4ccccc4O)cc3)n2)cc1 [compound 14, 14] | 180 | 5400 | 35.4 | 623 | > 444 | 111 (≈ 63.9 µg/mL) | 111 (≈ 63.9 µg/mL) | 111 (≈ 63.9 µg/mL) | – | – |
| NS(=O)(=O)c1ccc(CNc2nc(NCCCO)nc(Nc3ccc(C(=O)/C=C/c4ccc(O)cc4)cc3)n2)cc1 [compound 16, (E)-4-[({4-({4-[3-(4-Hydroxyphenyl)acryloyl]phenyl}amino)-6-[(3-hydroxypropyl)amino]-1,3,5-triazin-2-yl}amino)methyl]benzenesulfonamide] | 201 | 800 | 36 | 161 | > 444 | > 444 | > 444 | > 444 | – | – |
| NS(=O)(=O)c1ccc(CCNc2nc(Cl)nc(NCC(O)CO)n2)cc1 (stereo not drawn) [compound 19, 19] | 40.7 | – | – | – | > 635 | > 635 | > 635 | > 635 | – | – |
| NS(=O)(=O)c1ccc(CCNc2nc(NCCCO)nc(Nc3ccc(C(=O)/C=C/c4ccccc4O)cc3)n2)cc1 [compound 22, 22] | 283 | 7700 | 939 | > 10000 | 108 (≈ 63.7 µg/mL) | 108 (≈ 63.7 µg/mL) | 108 (≈ 63.7 µg/mL) | 108 (≈ 63.7 µg/mL) | – | – |
| NS(=O)(=O)c1ccc(CCNc2nc(Nc3ccc(O)cc3)nc(Nc3ccc(C(=O)/C=C/c4ccccc4O)cc3)n2)cc1 [compound 24, 24] | 281 | 5010 | 63.8 | 227 | 102 (≈ 63.6 µg/mL) | 51.3 (≈ 32 µg/mL) | 51.3 (≈ 32 µg/mL) | 51.3 (≈ 32 µg/mL) | – | – |
| NS(=O)(=O)c1ccc(CCNc2nc(NCCCO)nc(Nc3ccc(C(=O)/C=C/c4cccc(O)c4)cc3)n2)cc1 [compound 25, (E)-4-[2-({4-({4-[3-(3-Hydroxyphenyl)acryloyl]phenyl}amino)-6-[(3-hydroxypropyl)amino]-1,3,5-triazin-2-yl}amino)ethyl]benzenesulfonamide] | 186 | 7490 | 4130 | > 10000 | 108 (≈ 63.7 µg/mL) | 27.1 (≈ 16 µg/mL) | 27.1 (≈ 16 µg/mL) | 27.1 (≈ 16 µg/mL) | – | – |
| NS(=O)(=O)c1ccc(CCNc2nc(Nc3ccc(O)cc3)nc(Nc3ccc(C(=O)/C=C/c4cccc(O)c4)cc3)n2)cc1 [compound 26, (E)-4-[2-({4-({4-[3-(3-Hydroxyphenyl)acryloyl]phenyl}amino)-6-[(4-hydroxyphenyl)amino]-1,3,5-triazin-2-yl}amino)ethyl]benzenesulfonamide] | 42.1 | 6630 | 1340 | > 10000 | 51.3 (≈ 32 µg/mL) | 51.3 (≈ 32 µg/mL) | 51.3 (≈ 32 µg/mL) | 25.6 (≈ 16 µg/mL) | – | – |
| NS(=O)(=O)c1ccc(CCNc2nc(NCCCO)nc(Nc3ccc(C(=O)/C=C/c4ccc(O)cc4)cc3)n2)cc1 [compound 27, (E)-4-[2-({4-({4-[3-(4-Hydroxyphenyl)akryloyl]phenyl}amino)-6-[(3-hydroxypropyl)amino]-1,3,5-triazin-2-yl}amino)ethyl]benzenesulfonamide] | 459 | 8960 | 28.8 | > 10000 | 434 (≈ 256 µg/mL) | > 434 | > 434 | > 434 | – | – |
| NS(=O)(=O)c1ccc(CCNc2nc(Nc3ccc(O)cc3)nc(Nc3ccc(C(=O)/C=C/c4ccc(O)cc4)cc3)n2)cc1 [compound 29, (E)-4-[2-({4-({4-[3-(4-Hydroxyphenyl)acryloyl]phenyl}amino)-6-[(4-hydroxyphenyl)amino]-1,3,5-triazin-2-yl}amino)ethyl]benzenesulfonamide] | 88.6 | 5810 | 730 | > 10000 | 51.3 (≈ 32 µg/mL) | 25.6 (≈ 16 µg/mL) | 25.6 (≈ 16 µg/mL) | 102 (≈ 63.6 µg/mL) | – | – |
| NS(=O)(=O)c1ccc(CCNc2nc(NCCc3ccc(S(N)(=O)=O)cc3)nc(Nc3ccc(/C=C/c4cccc(O)c4)cc3)n2)cc1 [compound 41, (E)-4,4’-{[(6-{[4-(3-Hydroxystyryl)phenyl]amino}-1,3,5-triazin-2,4-diyl)bis(azandiyl)]bis(ethan-2,1-diyl)} benzenesulfonamide] | – | – | 41.4 | 31.1 | > 372 | 372 (≈ 255 µg/mL) | > 372 | > 372 | 608 | 62.2 |
| NS(=O)(=O)c1ccc(CCNc2nc(Nc3ccc(O)cc3)nc(Nc3ccc(/C=C/c4ccc(O)cc4)cc3)n2)cc1 [compound 43, 43] | – | – | 4840 | 25.7 | > 429 | 429 (≈ 256 µg/mL) | > 429 | > 429 | 4060 | 702 |
| NS(=O)(=O)c1ccc(CCNc2nc(NCc3ccc(S(N)(=O)=O)cc3)nc(Nc3ccc(/C=C/c4ccc(O)cc4)cc3)n2)cc1 [compound 44, (E)-4-{2-[(4-{[4-(4-Hydroxystyryl)phenyl]amino}-6-[(4-sulfamoylbenzyl)amino]-1,3,5-triazin-2-yl)amino]ethyl}benzenesulfonamide] | – | – | 252 | 249 | 380 (≈ 256 µg/mL) | 380 (≈ 256 µg/mL) | 190 (≈ 128 µg/mL) | > 380 | 859 | 10 |
